US20230278957A1, “TREX1 INHIBITORS AND USES THEREOF” (WAKE FOREST UNIVERSITY HEALTH SCIENCES, priority 2020, published 2023)
“Also recorded” adds a separate entry of the source. Where two headings read alike, the source gives them in different places.

Columns and labels:
Format in all cases: biochemical
[1] = target: T1, recombinant hTREX1(1-242)WT (hT1) (Homo sapiens, UniProt Q9NSU2); test: fluorescence-based exonuclease assay, hTREX1 IC50 and HTS
T1 construct: recombinant hTREX1(1-242)^WT
T1 sequence (Q9NSU2 1-242): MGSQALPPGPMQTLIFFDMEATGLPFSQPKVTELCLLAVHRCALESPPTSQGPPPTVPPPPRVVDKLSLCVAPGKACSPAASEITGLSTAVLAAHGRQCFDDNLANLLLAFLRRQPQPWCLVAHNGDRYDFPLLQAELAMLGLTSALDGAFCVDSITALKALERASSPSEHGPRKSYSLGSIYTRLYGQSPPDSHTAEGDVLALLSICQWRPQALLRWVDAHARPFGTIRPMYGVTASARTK
Method: FIG. 1: Determining IC50 of Candidate Compounds. […] Standard time-course reactions were prepared in 150 µL volumes containing vehicle or indicated concentrations of inhibitor (Panel A= 0.1-10 µM; Panel C= 1-50 µM), incubated 1 hr at room temperature, and 20 µL samples of each reaction taken at time-points of 0, 5, 10, 20, 30, 45, & 60 minutes and quenched in 20 µL of 15X SYBR Green. Fluorescence was measured, and fluorescence versus time plots were normalized to maximal initial fluorescence and background fluorescence. Plots were fitted with nonlinear regression, then initial velocities of each reaction interpolated and normalized to vehicle-only control reactions to give percent activity. Plots of inhibitor concentration versus percent activity were fit with nonlinear regression to interpolate compound IC50. Plots were generated in Prism (GraphPad) and combined in PowerPoint. Active compounds had IC50 determined in at least three separate experiments. Panels E-F: Gel Assay Validation of Hit Compound IC50. Several hit compounds, including those shown, had their IC50 confirmed via gel assay to validate efficacy of the fluorescence-based biochemical assay. Results of the gel and fluorescence assays were in agreement for all compounds tested. Standard time-course reactions containing nicked plasmid were prepared in 150 µL volumes with the indicated concentrations of inhibitor, and incubated at room temperature. Reaction samples were taken at indicated times, quenched, dried in vacuo, resuspended, then visualized by agarose gel electrophoresis. Control lanes containing supercoiled dsDNA plasmid (‘Plasmid’) and undegraded nicked dsDNA plasmid (‘Nicked’) are included. Low-MW residual bands are ssDNA plasmid leftover from TREX1 exonuclease activity.
We altered a reported fluorescence-based exonuclease assay^17,23 for the purposes of HTS. The assay parameters were optimized to limit materials use and maximize the dynamic range of the assay readout. We used this assay to perform a HTS of the three mentioned libraries against recombinant hTREX1(1-242)^WT, hereafter abbreviated as ‘hT1’. In the case of all libraries, compounds eliciting ≤50% activity at their indicated screening concentrations were identified as ‘candidates’.
The biochemical assay used for HTS was also applied to determining candidate IC50. Briefly, time-course reactions were performed for a range of concentrations for each candidate, and plots of fluorescence vs time were normalized to the initial fluorescence of the reaction and the plate-wide background fluorescence. This normalization helped address compounds with inherent effects on the fluorescent readout. Initial velocities were calculated from normalized plots and used to calculate percent activities relative to vehicle-only control reactions. Standard dose-response curves were then constructed to interpolate candidate IC50. […] Candidates that initially tested with IC50 ≤100 µM had their IC50 redetermined in two additional, independent experiments. […] To validate the efficacy of the fluorescence-based assay at determining IC50, several of the hit compounds had their IC50 confirmed using a gel assay previously described by our lab^23. Briefly, a dsDNA plasmid is nicked, the substrate is incubated with TREX1 which degrades off (partially or completely) the nicked strand, and the reaction is quenched in ethanol, dried in vacuo, and visualized via agarose gel electrophoresis. Example data of these validation assays is provided (FIG. 1, Panels E-F).

[2] = target: T2, hT1 (Homo sapiens, UniProt Q9NSU2); test: jump-dilution reversibility of inhibition; settings: for reversibility classification: by IC50 ratio of jump-dilution
T2 construct: recombinant hTREX1(1-242)^WT
T2 sequence (Q9NSU2 1-242): T1 sequence (Q9NSU2 1-242)
Method: FIG. 4: Reversibility of Inhibition for Lead Compounds. Panel A: Summary chart of the results for each lead compound. IC50 ratios were calculated by dividing the […]. An IC50 ratio of 10 is expected for irreversible inhibitors, and the results were classified as follows: ≥ 5.0 → Irreversible, 2.0-5.0 → Ambiguous, 0.5-2.0 → Reversible. Panels B-G: Standard IC50 experiments were conducted with various concentrations of each lead compound. However, before enzyme addition to the reaction components the inhibitor or vehicle was pre-incubated with either the reaction components at ~1X the final concentration (‘Reaction Pre-Incubation’) or the enzyme at ~10X the final concentration (‘Enzyme Pre-Incubation’). The enzyme and reaction components were then combined to initiate reactions, and IC50 calculated as discussed earlier. TIM190 was included as an example of an irreversible inhibitor. Plots were generated in Prism (GraphPad), and figure was assembled in PowerPoint.
To determine whether our leads’ inhibition mechanisms were reversible, we utilized a strategy known as a ‘jump-dilution′^76. With this strategy, an inhibitor is initially incubated with the target at a high concentration, then, the inhibitor and target are diluted into reaction mix and the potency of the inhibitor is compared to a similar reaction without the pre-incubation step. If an inhibitor is covalent, time-dependent (slow-binding), or otherwise irreversible, then it will display potency consistent with the higher initial concentration, while reversible inhibitors’ potency is not meaningfully affected by the pre-incubation. We performed jump dilution experiments for our leads with our earlier described biochemical assay (FIG. 3). Under our conditions, irreversible inhibitors were expected to display a 10-fold potency increase in the jump-dilution reactions.

[3] = target: T3, recombinant wild-type murine TREX1(1-242) (mT1) (Mus musculus, UniProt Q91XB0); test: fluorescence-based exonuclease assay, counter-screen against mTREX1; settings: up to an inhibitor concentration of 100 µM
T3 construct: recombinant wild-type murine TREX1(1-242), hereafter ‘mT1’
T3 sequence (Q91XB0 1-242): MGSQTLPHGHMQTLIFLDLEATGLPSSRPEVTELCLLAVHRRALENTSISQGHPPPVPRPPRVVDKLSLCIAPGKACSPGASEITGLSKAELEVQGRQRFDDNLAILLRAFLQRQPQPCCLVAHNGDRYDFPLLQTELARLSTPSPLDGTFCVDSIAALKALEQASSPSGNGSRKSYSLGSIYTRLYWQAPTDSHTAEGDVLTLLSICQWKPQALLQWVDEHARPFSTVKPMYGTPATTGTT
Method: (§1) FIG. 3: Counter-Screening Hit Compounds Against mTREX1 and hTREX2 Enzymes. Panel A: Summary chart of lead compounds’ IC50 against hTREX1 vs mTREX1 versus hTREX2. Panels B-F: Overlay of lead compounds’ dose-response curves for hTREX1, mTREX1, and hTREX2. Dose-response curves were generated as described earlier. Each dose-response curve is representative of three IC50 experiments. Graphs were prepared in Prism (GraphPad), and figure was assembled in PowerPoint.
(§2) We were also interested in the activity of our leads against enzymes more closely related to hT1, namely murine TREX1 and the highly related human TREX2 enzyme. mTREX1 was of interest, since future studies of the lead compounds would presumably take place in a murine model. hTREX2, which also functions as a 3′➔5′ exonuclease, is primarily expressed in keratinocytes (while TREX1 expression is more ubiquitous), and its mutation is not associated with an autoimmune phenotype, but instead results in a hypermutator phenotype in the skin that is conditional upon exposure to ultraviolet radiation^10,72-74. For mTREX1, cross-activity was preferred to allow later efficacy studies in a murine model. […] We determined the IC50 of lead compounds for recombinant wild-type murine TREX1(1-242), hereafter ‘mT1’, and for recombinant wild-type human TREX2(1-236), hereafter ‘hT2’ (FIG. 2). […]

[4] = target: T4, recombinant wild-type human TREX2(1-236) (hT2) (Homo sapiens, UniProt Q9BQ50); test: fluorescence-based exonuclease assay, counter-screen against hTREX2; settings: up to an inhibitor concentration of 100 µM
T4 construct: recombinant wild-type human TREX2(1-236), hereafter ‘hT2’
T4 sequence (Q9BQ50 1-236): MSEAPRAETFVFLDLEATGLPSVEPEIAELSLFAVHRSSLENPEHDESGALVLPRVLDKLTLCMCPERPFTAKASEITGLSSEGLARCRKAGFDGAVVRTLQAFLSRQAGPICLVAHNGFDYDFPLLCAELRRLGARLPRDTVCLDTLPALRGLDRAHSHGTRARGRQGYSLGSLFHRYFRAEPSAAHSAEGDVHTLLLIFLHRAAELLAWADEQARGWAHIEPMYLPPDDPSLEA
Method: as §1, §2

[5] = experiment 1, read-out: IC50 #1
[6] = experiment 2, read-out: IC50 #2
[7] = experiment 3, read-out: IC50 #3
[8] = median of three independent experiments, read-out: Median IC50

Row | Structure (SMILES) | IC50 [1, 5] [µM] | IC50 [1, 6] [µM] | IC50 [1, 7] [µM] | IC50 [1, 8] [µM] | reversibility classification [2] | inhibition of mT1 [3] | inhibition of hT2 [4] | inhibition of hT1 (in words) [1] | increase in potency as a result of the jump-dilution ([2]; enzyme pre-incubation vs control reaction, 10-fold expected for irreversible inhibitors) [fold]
1 | O=C1Nc2ccc(S(=O)(=O)ON3C(=O)c4cccc5cccc(c45)C3=O)c3cccc1c23 [TIM213] | 2.4 | 5 | 10.7 | 5 | – | – | – | – | –
2 | N#Cc1c(O)nc(SCC(=O)N2c3ccccc3Sc3ccccc32)nc1-c1ccccc1 [TIM183] | 3.6 | 8.5 | 8.8 | 8.5 | – | – | – | – | –
3 | O=C1c2cccc([N+](=O)[O-])c2C(=O)N1c1cccc(-c2nc3ccccc3c(=O)o2)c1 [TIM136] | 5.7 | 9.9 | 10.2 | 9.9 | – | – | – | – | –
4 | CCn1c2ccccc2c2cc([C@H]3Nc4ccccc4NC4=C3C(=O)C[C@@H](c3ccc(OC)cc3)C4)ccc21 [TIM137] | 6.7 | 16.2 | 5.6 | 6.7 | – | – | – | – | –
5 | O=C(O)c1ccc(-c2ccc(/C=c3\sc4nc5cc(Br)cnc5n4c3=O)o2)cc1 [TIM190] | 10.7 | 10.7 | 13.5 | 10.7 | irreversible | – | – | – | –
6 | O=C(c1ccc2nonc2c1)N1CCCCC1c1nc2cc(F)ccc2[nH]1 (stereo not shown) [TIM218] | 12.7 | 7.6 | 17.8 | 12.7 | – | no detectable inhibition; also recorded: does not inhibit mT1 | no detectable inhibition | did inhibit hT1 | –
7 | O=c1c2cnc3nc(-c4ccc(Cl)cc4)nn3c2ccn1Cc1cccnc1 [TIM215] | 13.9 | 14.6 | 12 | 13.9 | – | – | – | – | –
8 | Cc1cc(C)c(S(=O)(=O)Nc2ccc3c(c2)c2c(n3S(=O)(=O)c3cc(C)c(C)cc3C)CCCC2=O)cc1C [TIM146] | 15 | 6.4 | 37.9 | 15 | – | – | – | – | –
9 | Cc1ccc(N2NC(=O)/C(=C/c3ccc(-c4ccc5c(c4)C(=O)NC5=O)o3)C2=O)cc1C [TIM207] | 13.5 | 7.8 | 8.9 | 8.9 | ambiguous | – | – | – | 2.9
10 | Cc1cnc(/C=C/c2ccccc2)c2[nH]c3ccccc3c12 [TIM047] | 16 | 6.8 | 15 | 15 | – | – | – | – | –
11 | Cc1ccc2nc(N3C(=O)C(=O)C(=C(O)c4ccc5c(c4)C[C@H](C)O5)[C@@H]3c3cccs3)sc2c1 [TIM185] | 13.1 | 14.9 | 113 | 14.9 | – | – | – | – | –
12 | COc1ccc(N2C(=O)c3ccc(Oc4ccc(Oc5ccc(C(=O)O)cc5)cc4)cc3C2=O)cc1 [TIM050] | 3.7 | 3 | 5.3 | 3.7 | – | – | – | – | –
13 | Cc1ccc(-c2noc(-c3cc(N4CCC(C(N)=O)CC4)nc4ccccc34)n2)cc1 [TIM178] | 6.9 | 3.7 | 7.2 | 6.9 | – | – | – | – | –
14 | COc1ccc2[nH]c3c(c2c1)CCC[C@H]3NC(=O)COc1ccc2c3c(c(=O)oc2c1)CCCC3 [TIM184] | 5.1 | 7 | 7 | 7 | – | – | – | – | –
15 | Cc1cccc(C(=O)Nc2ccc(-c3cc4ccccc4oc3=O)cc2)c1 [TIM003] | 24.9 | 7.8 | 8.8 | 8.8 | – | – | – | – | –
16 | Cn1c(O)c(N=NC(=O)[C@@H]2COc3cc4ccccc4cc3O2)c2cc(Br)ccc21 [TIM191] | 8.5 | 7.8 | 10 | 8.5 | – | – | – | – | –
17 | Cc1ccc(-n2c(=O)c3cc4c(=O)n(-c5ccc(C)c(C)c5)c(=O)c4c(C(=O)c4ccc(C(=O)O)cc4)c3c2=O)cc1C [TIM148] | 6.4 | 8.5 | 11.9 | 8.5 | – | – | – | – | –
18 | COc1cc2c3c(ccc4c5ccc6c7c(cc(OC)c(c1c34)c75)-c1ccccc1C6=O)-c1ccccc1C2=O [TIM192] | 13.3 | 13 | 8.1 | 13 | – | – | – | – | –
19 | CC(C)(C)c1ccc(CC2CCN(C(=O)c3cncn3-c3cccc(-c4cccc5c4sc4ccccc45)c3)CC2)cc1 [TIM181] | 3.5 | 5.9 | 4.6 | 4.6 | – | – | – | – | –
